Series [1] is described as follows: Plasma stability. As to conditions: Human plasma. It is filed as in vitro ADME. The procedure: Plasma previously separated from whole blood in EDTA-treated tubes and frozen; blood samples obtained from healthy volunteers, Sprague Dawley rats and CD1 mice, was thawed at room temperature and centrifuged at 1400x RCF 4°C, for 15 minutes. Approximately 90% of the clear supernatant fraction was transferred to a separate tube and was used for the assay.
Stocks (1 mM and 25 µM) of test compound were prepared in acetonitrile:water (50:50 v/v). Plasma samples were heat inactivated at 54°C. 3 µl of 25 µM test compound were added to 72 µl of heat inactivated plasma. A 50 µL aliquot of the mixture was taken and crashed with 200 µl of acetonitrile containing Telmisartan 100 ng/ml as internal standard and was further processed along with other time points: 10, 30 60 and 120 minutes.
Final working stock of 1 µM was prepared by diluting 12 µl of 25 µM stock in 288 µl of plasma. The obtained solution (300 µl) of plasma containing the test compound was incubated for […] at 37°C in shaker water bath with gentle shaking. 50 µl aliquot of sample at 10, 30, 60 and 120 min was precipitated immediately with 200 µl of acetonitrile containing internal standard and centrifuged at 4000x RCF, 4°C for 20 minutes. 150 µl of supernatant was diluted with 150 µl of water and analyzed by LC-MS/MS.
The % remaining of the test substance was calculated as: (Peak Area ratio at time (min))/(Peak Area Ratio at 0 min) ^∗ 100
The API400 MS and Agilent 1260 Infinity LC were used. Mobile Phase included 10mM Ammonium acetate with 0.1% formic acid in MilliQ water, and Methanol. The column was Phenomenex, KINETIC EVO C18 100A 5u 50^∗4.6 mm, 10 µl injection volume.

The target in series [2] is T1, CYP2D6 (Homo sapiens, UniProt P10635).
T1 construct: 158 µl of Human Liver Microsome working stock solution; from tissue; host or cells: human liver microsomes
Nature of the series: Cytochrome P450 inhibition. The settings on record: 2D6, Human Liver Microsome. The format is in vitro ADME. The procedure: (§1) Ready to use PBS, 9.07-10.00 g, (Sigma Aldrich, catalogue code P3813) was dissolved in […] MilliQ water and pH was adjusted to 7.4.
(§2) Substrate pool was done pooling 14 µl of Phenacitin 10 mM (CYP1A2 substrate, Sigma Aldrich, catalogue number 7740), 14 µl Diclofenac 10 mM (CYP2C9 substrate, Sigma Aldrich, catalogue number D6899), 14 µl Dextromethorphan 10 mM (CYP2D6 substrate, Sigma Aldrich, catalogue number D9684), 20.28 µl Midazolam 2.76 mM (CYP3A4 substrate, Sigma Aldrich, catalogue number UC430) and 14 µl Bupropion HCl 10 mM (CYP2B6 substrate, Sigma Aldrich, catalogue number B102), and diluted to 2800 µl with PBS buffer pH 7.4.
(§3) Inhibitors of the cytochromes tested were the following: Alpha-naphthoflavone (CYP1A2, Sigma Aldrich, catalogue number N5757); Sulfaphenazole (CYP2C9, Sigma Aldrich, catalogue number S0758); Ticlopidine (CYP2B6, Sigma Aldrich, catalogue number T6654); Quinidine (CYP2D6, Sigma Aldrich, catalogue number Q3625); Ketoconazole (CYP3A4, Sigma Aldrich, catalogue number K1003).
(§4) 158 µl of Human Liver Microsome working stock solution in PBS buffer pH7.4 was added to reaction plate (0.253 mg/ml, 158 µl/well).
(§5) Test compounds and inhibitors were prepared in DMSO and diluted with buffer to prepare working solution with the final concentration of 3000, 999, 333, 111, 37 and 12 µM. 2 µl of working solution of the test compounds or inhibitors listed above were added to reaction plate (2 µl/ well). For control, 2 µl of Acetonitrile containing DMSO (without inhibitor) was added to reaction plate. 20 µl of substrate pool was added to all the wells of the reaction plate. The samples were mixed using the vortex and pre-incubated at 37°C for 5 min.
(§6) The NADPH solution 10 mM in PBS buffer pH 7.4 was pre-warmed at 37°C for 5 min. 20 µl of pre-warmed NADPH solution was added to the reaction plate and then incubated at 37°C for 10 min.
(§7) The reaction was terminated by adding cold ACN (200 µl/well) to the reaction mixture and centrifuged at 4,000 rpm for 20 minutes.
(§8) After centrifugation, 200 µl of supernatant was submitted for LC-MS/MS analysis. Mobile phases include 0.1% formic acid in water and methanol:acetonitrile, 50% (v/v).
(§9) Column is Phenomenex kinetic C18, 50 x 4.6 mm, […]. IC50 values were calculated using Graphpad Prism (version 4.03).

The target of series [3] is T2, CYP2B6 (Homo sapiens, UniProt P20813).
T2 construct: 158 µl of Human Liver Microsome working stock solution; from tissue; host or cells: human liver microsomes
Description: Cytochrome P450 inhibition. The settings on record: 2B6, Human Liver Microsome. It is filed as in vitro ADME. The procedure:
as §1, §2, §3, §4, §5, §6, §7, §8, §9
Background: Liver microsomes are vesicles of endoplasmic reticulum, rich in cytochrome P450 enzymes.

For series [4], the target named is T3, CYP1A2 (Homo sapiens, UniProt P05177).
T3 construct: 158 µl of Human Liver Microsome working stock solution; from tissue; host or cells: human liver microsomes
Description: Cytochrome P450 inhibition. It is filed as in vitro ADME. As to conditions: 1A2, Human Liver Microsome. The procedure: as §1, §2, §3, §4, §5, §6, §7, §8, §9

For series [5], the target named is T4, CYP3A4 (Homo sapiens, UniProt P08684).
T4 construct: 158 µl of Human Liver Microsome working stock solution; from tissue; host or cells: human liver microsomes
Nature of the series: Cytochrome P450 inhibition. The format is in vitro ADME. As to conditions: 3A4, Human Liver Microsome. The procedure: as §1, §2, §3, §4, §5, §6, §7, §8, §9

Series [6] concerns DU145 cell line. Nature of the series: Cytotoxicity, cell count method. It is filed as cell-based. As to conditions: Homo sapiens, DU-145, DU145, 72 hours of incubation.

One compound from patent EP4050002A1, “ANTI-PROLIFERATIVE AGENTS” (First Health Pharmaceuticals B.V., priority 2021, dated 2022) can be followed below.

Where only a bound is given, the exact number is not on record here.

T4 sequence (P08684 whole entry): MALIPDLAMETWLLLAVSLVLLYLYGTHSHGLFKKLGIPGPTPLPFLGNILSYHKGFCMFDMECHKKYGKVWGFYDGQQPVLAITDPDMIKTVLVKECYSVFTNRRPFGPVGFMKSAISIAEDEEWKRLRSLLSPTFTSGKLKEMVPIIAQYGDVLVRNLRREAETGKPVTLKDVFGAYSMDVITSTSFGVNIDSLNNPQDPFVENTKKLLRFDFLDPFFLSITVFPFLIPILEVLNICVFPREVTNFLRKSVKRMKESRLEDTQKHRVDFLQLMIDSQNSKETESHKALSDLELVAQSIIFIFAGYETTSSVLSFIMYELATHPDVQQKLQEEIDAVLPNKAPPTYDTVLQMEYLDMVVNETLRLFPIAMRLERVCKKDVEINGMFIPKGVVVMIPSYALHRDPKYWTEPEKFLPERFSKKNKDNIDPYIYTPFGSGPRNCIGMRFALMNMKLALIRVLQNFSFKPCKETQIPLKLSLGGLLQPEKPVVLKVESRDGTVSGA
T1 sequence (P10635 whole entry): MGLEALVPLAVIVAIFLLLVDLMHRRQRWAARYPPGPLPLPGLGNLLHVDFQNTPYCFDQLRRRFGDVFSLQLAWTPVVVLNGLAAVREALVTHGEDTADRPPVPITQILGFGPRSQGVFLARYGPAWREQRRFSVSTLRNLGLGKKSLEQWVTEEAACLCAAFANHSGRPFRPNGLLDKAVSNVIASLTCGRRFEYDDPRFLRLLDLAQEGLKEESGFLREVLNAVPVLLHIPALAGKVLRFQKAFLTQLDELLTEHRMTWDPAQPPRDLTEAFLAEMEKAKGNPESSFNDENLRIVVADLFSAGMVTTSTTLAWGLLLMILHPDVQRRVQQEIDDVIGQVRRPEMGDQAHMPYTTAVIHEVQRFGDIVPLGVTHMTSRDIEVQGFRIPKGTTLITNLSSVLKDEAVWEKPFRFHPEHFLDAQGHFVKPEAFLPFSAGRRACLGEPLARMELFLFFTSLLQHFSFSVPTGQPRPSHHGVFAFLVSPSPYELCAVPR
T2 sequence (P20813 whole entry): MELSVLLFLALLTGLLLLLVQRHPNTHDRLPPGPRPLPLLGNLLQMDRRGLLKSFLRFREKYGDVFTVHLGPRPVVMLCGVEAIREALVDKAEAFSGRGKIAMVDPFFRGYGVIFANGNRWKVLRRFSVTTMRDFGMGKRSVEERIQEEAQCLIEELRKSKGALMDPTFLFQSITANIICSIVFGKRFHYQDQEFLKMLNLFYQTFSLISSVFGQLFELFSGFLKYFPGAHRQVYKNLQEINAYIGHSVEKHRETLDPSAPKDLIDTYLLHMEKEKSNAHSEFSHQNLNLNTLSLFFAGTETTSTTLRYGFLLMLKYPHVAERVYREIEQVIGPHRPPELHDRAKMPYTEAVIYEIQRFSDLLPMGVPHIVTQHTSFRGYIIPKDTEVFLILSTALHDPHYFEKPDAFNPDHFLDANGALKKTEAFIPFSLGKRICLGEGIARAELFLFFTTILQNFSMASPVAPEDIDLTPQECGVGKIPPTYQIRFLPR
T3 sequence (P05177 whole entry): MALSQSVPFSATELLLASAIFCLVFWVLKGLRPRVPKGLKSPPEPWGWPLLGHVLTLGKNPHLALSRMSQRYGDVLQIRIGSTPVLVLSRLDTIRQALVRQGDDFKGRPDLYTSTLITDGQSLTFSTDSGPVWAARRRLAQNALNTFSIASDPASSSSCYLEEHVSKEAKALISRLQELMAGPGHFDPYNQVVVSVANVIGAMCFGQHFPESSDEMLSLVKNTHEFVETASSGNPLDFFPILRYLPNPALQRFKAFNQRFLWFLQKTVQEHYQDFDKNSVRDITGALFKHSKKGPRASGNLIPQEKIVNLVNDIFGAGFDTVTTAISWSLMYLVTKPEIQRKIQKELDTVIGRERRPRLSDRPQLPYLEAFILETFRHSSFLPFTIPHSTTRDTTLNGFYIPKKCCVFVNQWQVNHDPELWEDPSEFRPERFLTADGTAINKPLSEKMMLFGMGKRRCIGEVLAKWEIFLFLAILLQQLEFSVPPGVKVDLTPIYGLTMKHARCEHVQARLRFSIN

On to `CCCCc1cn(-c2ccc(-c3nnc(-c4ccccc4C(F)(F)F)o3)cc2)nn1` [Compound 5], for which the “% Remaining ± SD” value in series [1] (0 minutes) amounted to 100.0 ± 3.9%; in series [1] (10 minutes), 107.1 ± 7.7%; in series [1] (30 minutes), 87.2 ± 10.3%; in series [1] (60 minutes) it was 88.3 ± 7.0%; in series [1] (120 minutes), 88.2 ± 8.2%. The IC50 was more than 30 µM in series [2]; more than 30 µM in series [3]; more than 30 µM in series [4]; more than 30 µM in series [5]; 3.7 µM in series [6].

The IC50 is the concentration that gives 50% inhibition.
